Measurements reported in patent US20240398969A1, “ANTIBODY-DRUG CONJUGATES FOR TREATING INFECTIONS OF HUMAN IMMUNODEFICIENCY VIRUS (HIV)” (priority 2023, published 2024).
pIC50: −log10 of the molar value. Like-named read-outs stand apart in the source and are kept apart here.

Experiments:
Format in all cases: cell-based
[1] = system: Ramos(human B lymphocyte); assay: Cytotoxicity assay, CellTiter-Glo Luminescent Cell Viability Assay, Ramos; conditions: 72 h, read-out: IC50 value of Luminescent Cell Viability Assay
[2] = system: HDAC; assay: Cellular HDAC enzymatic assay (FLUOR DE LYS HDAC fluorometric cellular activity assay) in CD4 enriched Jurkat T cells
Experimental: (§1) Cellular HDAC enzymatic assay was conducted for 3 days with the CD4 enriched Jurkat T lymphocyte cells or B lymphocyte cells treated with various amounts of drugs using FLUOR DE LYS® HDAC fluorometric cellular activity assay kit (Enzo Life Sciences, Inc., cat. No: BML-AK503-0001). The assay was performed following the manufacturer's instructions. […] The Fluor de Lys substrate was added in a culture media. After 30 min 37° C., 1 volume of the developer was added. After 15 min 37° C., the fluorophore was excited with 355 nm light and the emitted light (450 nm) was being detected on a fluorometric plate reader (Clariostar: BMG, Buckinghamshire, UK). For each experiment, controls (containing CD4 enriched Jurkat T lymphocyte cells or Ramos B lymphocyte cells and buffer), a blank incubation (containing buffer but no CD4 enriched Jurkat T lymphocyte cells or Ramos B lymphocyte cells) and samples (containing compound dissolved in DMSO or ADCs dissolved in PBS and further diluted in medium) were run in parallel. In each test the blank value was subtracted from both the control and the sample values. The control sample represented 100% of substrate deacetylation. For each sample the fluorescence was expressed as a percentage of the mean value of the controls.

[3] = system: HDAC; assay: Cellular HDAC enzymatic assay (FLUOR DE LYS HDAC fluorometric cellular activity assay) in Ramos B lymphocyte cells
Experimental: as §1

[4] = system: Jurkat CD4^+ (human T lymphocyte cells); assay: Cytotoxicity assay, CellTiter-Glo Luminescent Cell Viability Assay, Jurkat; conditions: 72 h, read-out: IC50 value of Luminescent Cell Viability Assay
Experimental: In vitro cytotoxicity assay was conducted for 3 days with the CD4 enriched Jurkat T cells and treated with various amounts of drugs using CellTiter-Glo® Luminescent Cell Viability Assay Kit (Promega, G7571). The assay was performed following the manufacturer's instructions. Briefly, cells were plated in 96-well plates at […] in 100 μl RPMI 1640 medium with 10% heat-inactivated Fetal Bovine Serum. The following day, a serial ten-fold dilution for eight points of drugs (Romidepsin, TMB-355-ADC, and TMB-355) was used. The final concentration in the test was ranging from 1×10^3 nM to 1×10^−4 nM for Romidepsin, from 6.67×10^2 nM to 6.67×10^−5 nM for TMB-355-ADC and TMB-355. The cells were then incubated at 37° C. for 72 h. Subsequently, 100 μL/well of CellTiter-Glo reagent was added and the cells were shaken for 2 minutes and then incubated for an additional 10 minutes at room temperature. After the incubation time, luminescence (light) was measured in a luminometer (Clariostar: BMG, Buckinghamshire, UK). The IC50 corresponds to the drug concentration which achieves 50% activity of untreated control cultures. IC50 values were calculated using the software package Prism 6.0 (GraphPad Software Inc., San Diego, Calif.) with variable slope option.

Molecule | pIC50 ([1]; Homo sapiens, Ramos) | pIC50 ([2]; read-out: IC50 value of Cellular HDAC enzymatic assay; Jurkat CD4^+ (human T lymphocyte cells), 3 days) | pIC50 ([3]; read-out: IC50 value of Cellular HDAC enzymatic assay; Ramos (human B lymphocyte), 3 days) | pIC50 ([4]; Homo sapiens, Jurkat) | pIC50 ([1]; Ramos (human B lymphocyte)) | pIC50 ([2]; Jurkat CD4^+ (human T lymphocyte cells), 3 days; read-out: IC50 value of Cellular HDAC enzymatic assay) | pIC50 ([3]; Ramos (human B lymphocyte), 3 days; read-out: IC50 value of Cellular HDAC enzymatic assay) | pIC50 ([4]; Jurkat CD4^+ (human T lymphocyte cells))
C/C=C1\NC(=O)[C@H]2CSSCC/C=C/[C@H](CC(=O)N[C@H](C(C)C)C(=O)N2)OC(=O)[C@H](C(C)C)NC1=O [Romidepsin] | 8.66 | 8.80 | 8.41 | 8.80 |  |  |  | 
TMB-355 |  |  |  |  | < 6.18 | < 6.18 | < 6.18 | < 6.18
